Molecules are shown by their SMILES. Where only a bound is given, the exact number is not on record here.

In this assay the target is Human V1b receptor (Homo sapiens (Human), UniProt P47901). Nature of the assay: Binding Test for V1b Receptor ([3H]AVP, crude membrane preparation of 293FT cells). The following applies: inhibition of [3H]AVP binding (0.4 to 1 nmol/L), room temperature, 60 minutes. The method, then: Binding Test for V1b Receptor
Human V1b receptor was transiently expressed in 293FT cells (Invitrogen). The cells were collected and then homogenated in a 15 mmol/L tris-hydrochloric acid buffer (pH 7.4 and containing 2 mmol/L magnesium chloride, 0.3 mmol/L ethylenediaminetetracetic acid, and 1 mmol/L glycol ether diaminetetraacetic acid). The resulting homogenate was centrifuged at 50,000×g at 4° C. for 20 minutes. The precipitate was resuspended in a 75 mmol/L tris-hydrochloric acid buffer (pH 7.4 and containing 12.5 mmol/L magnesium chloride, 0.3 mmol/L ethylenediaminetetracetic acid, 1 mmol/L glycol ether diaminetetraacetic acid, and 250 mmol/L sucrose) to give a crude membrane preparation, which was stored at −80° C. until the binding test was initiated. In the binding test, the crude membrane preparation was diluted with a 50 mmol/L tris-hydrochloric acid buffer (pH 7.4 and containing 10 mmol/L magnesium chloride and 0.1% bovine serum albumin) and mixed with each test compound and [^3H]AVP (final concentration: 0.4 to 1 nmol/L), followed by incubation at room temperature for 60 minutes. The test compound was serially diluted with DMSO so that it would have final concentrations of 0.01 nmol/L to 1 μmol/L at the time of mixing. After the incubation, the mixture was suction filtered through a GF/C filter that was preliminarily impregnated with 0.3% polyethyleneimine. The GF/C filter was dried and after adding a scintillator, the residual radioactivity on the filter was measured using TopCount (PerkinElmer Inc.). The radioactivity in the presence of unlabeled AVP at […] was defined as 0%, and the radioactivity in the absence of unlabeled AVP was defined as 100%. A dose-response curve was plotted from radio activities in the presence of a test compound at various concentrations, and the 50% inhibitory concentration (IC50 value) of the test compound was calculated.

Chain of Human V1b receptor (P47901 whole entry): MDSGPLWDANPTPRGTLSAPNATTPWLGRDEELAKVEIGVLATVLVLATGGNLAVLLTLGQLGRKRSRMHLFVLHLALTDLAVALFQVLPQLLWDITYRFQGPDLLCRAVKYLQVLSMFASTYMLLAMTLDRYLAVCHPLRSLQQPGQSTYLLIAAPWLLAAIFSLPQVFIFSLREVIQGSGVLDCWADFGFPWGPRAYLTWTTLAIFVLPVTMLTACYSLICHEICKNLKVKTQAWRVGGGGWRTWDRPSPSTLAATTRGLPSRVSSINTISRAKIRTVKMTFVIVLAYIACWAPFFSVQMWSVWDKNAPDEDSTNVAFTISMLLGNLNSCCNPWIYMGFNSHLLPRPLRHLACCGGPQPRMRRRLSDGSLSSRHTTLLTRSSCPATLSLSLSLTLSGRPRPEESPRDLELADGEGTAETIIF

One may read the IC50 as the concentration that inhibits the measured activity by half. For `CC(C)NC(=O)Cc1nn(-c2ccc(CCN3C[C@@H](C)O[C@@H](C)C3)cc2)c(=O)n1-c1cccc(Cl)c1` [Example D-52, 2-[4-(3-chlorophenyl)-1-(4-{2-[(2R,6S)-2,6-dimethylmorpholin-4-yl]ethyl}phenyl)-5-oxo-4,5-dihydro-1H-1,2,4-triazol-3-yl]-N-(propan-2-yl)acetamide], the IC50 lay in the range of 100 to 1000 nM.

In the case of `COc1cccc(-c2nc(-c3ccc(CCN4CCC(F)CC4)cc3)nn2CC(=O)NC(C)C)c1` [Example B-39, 2-[3-{4-[2-(4-fluoropiperidin-1-yl)ethyl]phenyl}-5-(3-methoxyphenyl)-1H-1,2,4-triazol-1-yl]-N-(propan-2-yl)acetamide], the IC50 is 10 to 100 nM.

For `COc1cccc(-c2nc(-c3ccc(CCN4CCCCC4)cc3)cn2CC(=O)NC(C)C)n1` [Example A-28, 2-[2-(6-methoxypyridin-2-yl)-4-{4-[2-(piperidin-1-yl)ethyl]phenyl}-1H-imidazol-1-yl]-N-(propan-2-yl)acetamide], the IC50 lay within 10 to 100 nM.

With `COc1cccc(-c2nc(-c3ccc(CCN4CCC(N(C)C)CC4)cc3)nn2CC(=O)NC(C)C)c1` [Example B-26, 2-[3-(4-{2-[4-(dimethylamino)piperidin-1-yl]ethyl}phenyl)-5-(3-methoxyphenyl)-1H-1,2,4-triazol-1-yl]-N-(propan-2-yl)acetamide], the 50% inhibitory concentration (IC50) was 100 to 1000 nM.

`COc1cccc(-c2nc(-c3ccc(CCN4CCC(NC(C)=O)CC4)cc3)nn2CC(=O)NC(C)C)c1` [Example B-35, 2-[3-(4-{2-[4-(acetylamino)piperidin-1-yl]ethyl}phenyl)-5-(3-methoxyphenyl)-1H-1,2,4-triazol-1-yl]-N-(propan-2-yl)acetamide] showed an IC50 of 100 to 1000 nM.

On to `CCC1COCCN1CCc1ccc(-n2nc(CC(=O)NC(C)C)n(-c3cccc(Cl)c3)c2=O)cc1` [Example D-54, 2-[4-(3-chlorophenyl)-1-{4-[2-(3-ethylmorpholin-4-yl)ethyl]phenyl}-5-oxo-4,5-dihydro-1H-1,2,4-triazol-3-yl]-N-(propan-2-yl)acetamide], for which the half-inhibitory concentration (IC50) was 10 to 100 nM.

`COc1cccc(-n2c(CC(=O)NC(C)C)nn(-c3ccc(CCN4C5CCC4COC5)cc3)c2=O)c1` [Example D-39, 2-[4-(3-methoxyphenyl)-1-{4-[2-(3-oxa-8-azabicyclo[3.2.1]oct-8-yl)ethyl]phenyl}-5-oxo-4,5-dihydro-1H-1,2,4-triazol-3-yl]-N-(propan-2-yl)acetamide] showed a 50% inhibitory concentration (IC50) of 10 to 100 nM.

As for `CC(C)NC(=O)Cn1cc(-c2ccc(OCCN3CCCCC3)cc2)nc1-c1cccc(Cl)c1` [Example A-33, 2-[2-(3-chlorophenyl)-4-{4-[2-(piperidin-1-yl)ethoxy]phenyl}-1H-imidazol-1-yl]-N-(propan-2-yl)acetamide], the half-inhibitory concentration (IC50) lay within 100 to 1000 nM.

Turning to `COc1cc(-c2nc(-c3ccc(CCN4CCC(OC)C4)cc3)cn2CC(=O)NC(C)C)ccc1F` (centres unmarked) [Example A-17, 2-[2-(4-fluoro-3-methoxyphenyl)-4-{4-[2-(3-methoxypyrrolidin-1-yl)ethyl]phenyl}-1H-imidazol-1-yl]-N-(propan-2-yl)acetamide], the concentration for half-maximal inhibition (IC50) lay within 10 to 100 nM.

Compound `COc1cccc(-c2nc(-c3ccc(CCN4CCSCC4)cc3)nn2CC(=O)NC(C)C)c1` [Example B-28, 2-[5-(3-methoxyphenyl)-3-{4-[2-(thiomorpholin-4-yl)ethyl]phenyl}-1H-1,2,4-triazol-1-yl]-N-(propan-2-yl)acetamide] came in with a half-inhibitory concentration (IC50) of less than 10 nM.

For `CC(C)NC(=O)Cc1nn(-c2ccc(CCN3CCOCC3C)cc2)c(=O)n1-c1cccc(Cl)c1` [Example D-53, 2-[4-(3-chlorophenyl)-1-{4-[2-(3-methylmorpholin-4-yl)ethyl]phenyl}-5-oxo-4,5-dihydro-1H-1,2,4-triazol-3-yl]-N-(propan-2-yl)acetamide], the concentration for half-maximal inhibition (IC50) was in the range of 10 to 100 nM.

`CC(C)NC(=O)Cc1nn(-c2ccc(CCN3CCSCC3)cc2)c(=O)n1-c1cccc(Cl)c1` [Example D-48, 2-[4-(3-chlorophenyl)-5-oxo-1-{4-[2-(thiomorpholin-4-yl)ethyl]phenyl}-4,5-dihydro-1H-1,2,4-triazol-3-yl]-N-(propan-2-yl)acetamide] gave an IC50 of 10 to 100 nM.

On to `CC(C)NC(=O)Cc1cc(-c2ccc(CCN3CCOCC3)cc2)nn1-c1cccc(Cl)c1` [Example C-05, 2-[1-(3-chlorophenyl)-3-{4-[2-(morpholin-4-yl)ethyl]phenyl}-1H-pyrazol-5-yl]-N-(propan-2-yl)acetamide], for which the IC50 came to 21 nM.

Regarding `COc1cccc(-c2nc(-c3ccc(CCN4CCOCC4)cc3)cn2CC(=O)NC(C)C)c1` [Example A-38, 2-[2-(3-methoxyphenyl)-4-{4-[2-(morpholin-4-yl)ethyl]phenyl}-1H-imidazol-1-yl]-N-(propan-2-yl)acetamide], the IC50 turned out to be 10 nM.

As for `COc1cccc(-c2nc(-c3ccc(CCN4C(C)COCC4C)cc3)nn2CC(=O)NC(C)C)c1` (centres unmarked) [Example B-41, 2-[3-{4-[2-(3,5-dimethylmorpholin-4-yl)ethyl]phenyl}-5-(3-methoxyphenyl)-1H-1,2,4-triazol-1-yl]-N-(propan-2-yl)acetamide], the IC50 was 10 to 100 nM.

Compound `CC(C)NC(=O)Cc1nn(-c2ccc(CCN3C4CCC3COC4)cc2)c(=O)n1-c1cccc(Cl)c1` [Example D-03, 2-[4-(3-chlorophenyl)-1-{4-[2-(3-oxa-8-azabicyclo[3.2.1]oct-8-yl)ethyl]phenyl}-5-oxo-4,5-dihydro-1H-1,2,4-triazol-3-yl]-N-(propan-2-yl)acetamide] registered an IC50 of 14 nM.

For `CC(C)NC(=O)Cc1nc(-c2ccc(CCN3C4CCC3COC4)cc2)nn1-c1cccc(Cl)c1` [Example C-22, 2-[1-(3-chlorophenyl)-3-{4-[2-(3-oxa-8-azabicyclo[3.2.1]oct-8-yl)ethyl]phenyl}-1H-1,2,4-triazol-5-yl]-N-(propan-2-yl)acetamide], the half-maximal inhibitory concentration (IC50) turned out to be 8.8 nM.

Take `CC(C)NC(=O)Cc1nn(-c2ccc(CCN3CC4(CCOCC4)C3)cc2)c(=O)n1-c1cccc(Cl)c1` [Example D-56, 2-[4-(3-chlorophenyl)-1-{4-[2-(7-oxa-2-azaspiro[3.5]non-2-yl)ethyl]phenyl}-5-oxo-4,5-dihydro-1H-1,2,4-triazol-3-yl]-N-(propan-2-yl)acetamide]: the concentration for half-maximal inhibition (IC50) was in the range of 10 to 100 nM.

Consider `CC(C)NC(=O)Cc1nn(-c2ccc(CCN3CCOCC3)c(F)c2)c(=O)n1-c1cccc(Cl)c1` [Example D-20, 2-[4-(3-chlorophenyl)-1-{3-fluoro-4-[2-(morpholin-4-yl)ethyl]phenyl}-5-oxo-4,5-dihydro-1H-1,2,4-triazol-3-yl]-N-(propan-2-yl)acetamide], for which the IC50 was determined as 20 nM.

As for `CC(C)(C)NC(=O)Cc1nn(-c2ccc(CCN3CCOCC3)cn2)c(=O)n1-c1cccc(Cl)c1` [Example D-15, N-tert-butyl-2-[4-(3-chlorophenyl)-1-{5-[2-(morpholin-4-yl)ethyl]pyridin-2-yl}-5-oxo-4,5-dihydro-1H-1,2,4-triazol-3-yl]acetamide], the IC50 lay in the range of 10 to 100 nM.

`CC(C)NC(=O)Cn1cc(-c2ccc(CC(C)N3CCOCC3)cc2)nc1-c1cccc(Cl)c1` (centres unmarked) [Example A-44, 2-[2-(3-chlorophenyl)-4-{4-[2-(morpholin-4-yl)propyl]phenyl}-1H-imidazol-1-yl]-N-(propan-2-yl)acetamide] showed a half-maximal inhibitory concentration (IC50) of 0.16 nM.

`COc1cccc(-n2c(CC(=O)NC(C)C)nn(-c3ccc(CCN4C5CCC4COC5)cn3)c2=O)c1` [Example D-40, 2-[4-(3-methoxyphenyl)-1-{5-[2-(3-oxa-8-azabicyclo[3.2.1]oct-8-yl)ethyl]pyridin-2-yl}-5-oxo-4,5-dihydro-1H-1,2,4-triazol-3-yl]-N-(propan-2-yl)acetamide] returned a half-maximal inhibitory concentration (IC50) of 100 to 1000 nM.

In turn, `COc1cc(-c2nc(-c3ccc(CCN4CCC(OC)CC4)cc3)cn2CC(=O)NC(C)C)ccc1F` [Example A-24, 2-[2-(4-fluoro-3-methoxyphenyl)-4-{4-[2-(4-methoxypiperidin-1-yl)ethyl]phenyl}-1H-imidazol-1-yl]-N-(propan-2-yl)acetamide] registered a half-maximal inhibitory concentration (IC50) of 10 to 100 nM.

On to `CC(C)NC(=O)Cn1cc(-c2ccc(CCN3CCC(CO)C3)cc2)nc1-c1cccc(Cl)c1` (centres unmarked) [Example A-07, 2-[2-(3-chlorophenyl)-4-(4-{2-[3-(hydroxymethyl)pyrrolidin-1-yl]ethyl}phenyl)-1H-imidazol-1-yl]-N-(propan-2-yl)acetamide], for which the IC50 came out at 18 nM.

As for `CC(C)NC(=O)Cc1nn(-c2ccc(CCN3CCOCC3)cc2)c(=O)n1-c1ccc(F)c(Cl)c1` [Example D-26, 2-[4-(3-chloro-4-fluorophenyl)-1-{4-[2-(morpholin-4-yl)ethyl]phenyl}-5-oxo-4,5-dihydro-1H-1,2,4-triazol-3-yl]-N-(propan-2-yl)acetamide], the IC50 amounted to 4.4 nM.

In turn, `COc1cc(-c2nc(-c3ccc(CCN4CCC[C@H]4C)cc3)cn2CC(=O)NC(C)C)ccc1F` [Example A-12, 2-[2-(4-fluoro-3-methoxyphenyl)-4-(4-{2-[(2R)-2-methylpyrrolidin-1-yl]ethyl}phenyl)-1H-imidazol-1-yl]-N-(propan-2-yl)acetamide] came in with an IC50 of 17 nM.
